Test [1] is described as follows: Calcium channel-blocking effect was assessed in potassium ion depolarized guinea pig ileum strips by recording the contractile responses produced by varying concentrations of calcium chloride. In kind it is functional, tissue-based. Conditions: Cavia porcellus, read-out: pA2 (converted).
Test [2] addresses T1, Voltage-dependent L-type calcium channel subunit alpha-1C (Rattus norvegicus, UniProt P22002). Nature of the test: Binding of [3H]nitrendipine to calcium channel in rat heart membranes was determined. In kind it is cell membranes, Membrane.
Test [3] has as its target T1, Voltage-dependent L-type calcium channel subunit alpha-1C. The test can be described thus: Binding of [3H]nitrendipine to calcium channel in rat heart membranes. In kind it is cell membranes, Membrane.
In test [4] the target is Voltage-gated L-type calcium channel (Rattus norvegicus, UniProt P22002+Q02485+P27732). The test can be described thus: Binding of [3H]nitrendipine to calcium channel in rat cerebral cortex. In kind it is tissue-based.

The record followed here is ChEMBL document CHEMBL1159134, “Heterocyclic guanidines as calcium antagonists” (Bioorg Med Chem Lett, 1994).

pEC50, pIC50: −log10 of the molar value. Values joined by “and” are separate entries in the source; they are usually repeats but may differ in a detail not shown here. Identical values can stand only once. Some results are limits rather than exact numbers.

T1 sequence (P22002 whole entry): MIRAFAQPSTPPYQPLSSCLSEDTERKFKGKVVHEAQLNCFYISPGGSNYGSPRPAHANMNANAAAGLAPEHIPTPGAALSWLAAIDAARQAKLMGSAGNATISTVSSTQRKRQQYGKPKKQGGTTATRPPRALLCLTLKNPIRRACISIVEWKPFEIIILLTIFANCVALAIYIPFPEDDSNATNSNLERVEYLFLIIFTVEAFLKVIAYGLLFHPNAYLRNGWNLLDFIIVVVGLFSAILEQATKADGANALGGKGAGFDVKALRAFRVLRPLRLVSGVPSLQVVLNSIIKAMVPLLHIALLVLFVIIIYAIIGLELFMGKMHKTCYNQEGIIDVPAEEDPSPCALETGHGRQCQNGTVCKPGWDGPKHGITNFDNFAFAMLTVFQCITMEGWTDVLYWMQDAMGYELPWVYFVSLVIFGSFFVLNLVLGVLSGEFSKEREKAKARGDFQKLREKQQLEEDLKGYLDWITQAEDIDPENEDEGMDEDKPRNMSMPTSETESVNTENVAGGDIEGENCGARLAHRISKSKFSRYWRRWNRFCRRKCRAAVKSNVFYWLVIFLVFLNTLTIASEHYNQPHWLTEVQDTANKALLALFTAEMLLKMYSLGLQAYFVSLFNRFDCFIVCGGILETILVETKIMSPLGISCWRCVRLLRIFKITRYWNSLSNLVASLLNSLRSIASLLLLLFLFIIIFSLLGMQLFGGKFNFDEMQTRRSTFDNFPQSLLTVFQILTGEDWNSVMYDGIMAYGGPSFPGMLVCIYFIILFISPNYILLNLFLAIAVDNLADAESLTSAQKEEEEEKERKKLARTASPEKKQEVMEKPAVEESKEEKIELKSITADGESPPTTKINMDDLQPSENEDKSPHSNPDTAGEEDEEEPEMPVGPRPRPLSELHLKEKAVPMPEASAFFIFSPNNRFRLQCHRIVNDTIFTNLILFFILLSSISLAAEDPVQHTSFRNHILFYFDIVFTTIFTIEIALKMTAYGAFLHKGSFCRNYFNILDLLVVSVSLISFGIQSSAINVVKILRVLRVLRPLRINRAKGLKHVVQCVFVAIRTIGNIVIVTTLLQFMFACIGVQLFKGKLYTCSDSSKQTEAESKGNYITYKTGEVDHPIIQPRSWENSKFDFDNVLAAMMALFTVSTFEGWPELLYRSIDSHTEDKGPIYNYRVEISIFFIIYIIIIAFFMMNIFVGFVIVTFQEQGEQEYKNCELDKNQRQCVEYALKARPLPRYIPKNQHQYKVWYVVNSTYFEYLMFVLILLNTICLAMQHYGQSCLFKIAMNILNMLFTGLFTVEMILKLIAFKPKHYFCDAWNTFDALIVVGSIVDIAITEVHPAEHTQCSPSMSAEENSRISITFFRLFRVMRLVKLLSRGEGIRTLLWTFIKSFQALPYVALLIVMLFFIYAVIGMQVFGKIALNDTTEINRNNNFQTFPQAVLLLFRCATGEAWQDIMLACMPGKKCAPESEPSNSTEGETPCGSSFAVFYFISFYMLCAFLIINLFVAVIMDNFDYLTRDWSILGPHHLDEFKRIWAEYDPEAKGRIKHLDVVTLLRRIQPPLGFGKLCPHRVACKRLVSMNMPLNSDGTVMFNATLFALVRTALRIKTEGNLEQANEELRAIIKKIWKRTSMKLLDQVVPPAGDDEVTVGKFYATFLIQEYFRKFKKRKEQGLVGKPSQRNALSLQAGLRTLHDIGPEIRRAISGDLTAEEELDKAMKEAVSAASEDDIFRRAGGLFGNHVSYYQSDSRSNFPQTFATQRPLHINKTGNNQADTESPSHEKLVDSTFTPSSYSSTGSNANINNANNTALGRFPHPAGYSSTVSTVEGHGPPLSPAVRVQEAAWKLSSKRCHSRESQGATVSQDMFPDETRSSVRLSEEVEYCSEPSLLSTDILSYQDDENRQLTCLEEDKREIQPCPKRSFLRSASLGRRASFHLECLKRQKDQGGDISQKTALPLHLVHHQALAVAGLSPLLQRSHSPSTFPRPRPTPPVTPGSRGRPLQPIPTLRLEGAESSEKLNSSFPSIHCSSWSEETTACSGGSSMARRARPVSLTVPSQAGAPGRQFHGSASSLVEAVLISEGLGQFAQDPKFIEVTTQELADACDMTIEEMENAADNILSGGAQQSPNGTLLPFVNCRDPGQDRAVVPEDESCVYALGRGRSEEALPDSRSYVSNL

On to `c1ccc(C(CNC2=N[C@H]3CCCC[C@@H]3N2)c2ccccc2)cc1`, for which the Kb in test [1] was 141 nM. Further, the negative logarithm of the IC50 (pIC50) in test [2] was below 6.00.
For `c1ccc(C(CCN/C2=N/CCCCCN2)c2ccccc2)cc1` the same measures were 37.2 nM and below 6.00.
On the same counts, the results for `CN1CCCN=C1NCC(c1ccccc1)c1ccccc1` are 1100 nM and below 6.00.
Consider `c1ccc(C(CCNC2=NCCCN2)c2ccccc2)cc1`, for which the Kb in test [1] is 34.7 nM. Besides, in test [2], the negative logarithm of the IC50 (pIC50) was below 6.00.
`c1ccc(C(CNC2=NCCCN2)c2ccccc2)cc1`: in test [1], the Kb was 776 nM. Moreover, in test [2], the pIC50 is below 6.00.
For `CN1CCN=C1NCCC(c1ccccc1)c1ccccc1`, the Kb in test [1] was 257 nM. Moreover, in test [2], the pIC50 was below 6.00.
On to `c1ccc(C(CNC2=NCCCCN2)c2ccccc2)cc1`, for which, in test [1], the Kb is 550 nM. Also, the pIC50 in test [2] is below 6.00.
Regarding `c1ccc([C@@H]2CCC[C@@H]2N/C2=N/CCCCCCCCCCC2)cc1`, in test [3], the negative-log EC50 (pEC50) is 7.21 and 7.47.
For the molecule `c1ccc(C(CCNC2=NCCCCN2)c2ccccc2)cc1`, the Kb in test [1] is 240 nM. In addition, the negative logarithm of the IC50 (pIC50) in test [2] was below 6.00.
For the molecule `c1ccc(C(CCNC2=N[C@H]3CCCC[C@@H]3N2)c2ccccc2)cc1`, the Kb in test [1] is 132 nM. Besides, the pIC50 in test [2] is below 6.00.
For `c1ccc(C(CCNC2=NCc3ccccc3CN2)c2ccccc2)cc1` the same measures were 50.1 nM and below 6.00.
In the case of `c1ccc(C(CNC2=NCCN2)c2ccccc2)cc1`, the Kb in test [1] was 676 nM. Besides, the pIC50 in test [2] is below 6.00.
`c1ccc(C(NC2=NCCN2)c2ccccc2)cc1`: the Kb in test [1] is 2510 nM. In addition, the pIC50 in test [2] was below 6.00.
On the same counts, the results for `CN1CCN=C1NCC(c1ccccc1)c1ccccc1` are 1860 nM and below 6.00.
On the same counts, the results for `CN1CCN=C1NCCCC(c1ccccc1)c1ccccc1` are 170 nM and below 6.00.
For `c1ccc(C(CCNC2=NCCN2)c2ccccc2)cc1` the same measures were 57.5 nM and below 6.00.
Regarding `c1ccc(C(CNC2=NCc3ccccc3CN2)c2ccccc2)cc1`, the Kb in test [1] was 81.3 nM. The pIC50 in test [2] is below 6.00.
On the same counts, the results for `c1ccc(C(CNC2=NCCCCCN2)c2ccccc2)cc1` are 251 nM and below 6.00.
Take `CCCC(CN/C1=N/CCCCCCCCCCC1)(c1ccccc1)c1ccccc1`: the Kb in test [1] is 53.7 nM. Also, in test [4], the EC50 turned out to be 61 nM. Moreover, the pEC50 in test [3] was 7.47. Also, the pIC50 in test [2] was below 6.00.
As for `CN1CCCN=C1NCCC(c1ccccc1)c1ccccc1`, the Kb in test [1] is 240 nM. In test [2], the negative-log IC50 (pIC50) is below 6.00.
Turning to `COc1ccc([C@@H]2Sc3ccccc3N(CCN(C)C)C(=O)[C@@H]2OC(C)=O)cc1` [DILTIAZEM], the Kb in test [1] was 41.7 nM.

A word on the pIC50: it is the negative decadic logarithm of the IC50, by convention in mol/L. The pEC50 is the EC50 on a negative log10 scale, so that one unit is a factor of ten. Broadly, the EC50 is the concentration at which the effect is half-maximal.
